Measurements taken from ChEMBL document CHEMBL4321799, “Development of the First Low Nanomolar Liver Receptor Homolog-1 Agonist through Structure-guided Design” (J Med Chem, 2019).
Activity calls are given as the source filed them. No cut-off for these calls is given here.

Columns and labels:
[1] = molecular target: Steroidogenic factor 1 (Homo sapiens) (UniProt Q13285); experiment: Agonist activity at recombinant full length SF1 (unknown origin) transfected in human HeLa cells incubated for 24 hrs by renilla luciferase reporter gene assay; format: cell-based
Sequence of Steroidogenic factor 1 (Homo sapiens) (Q13285 whole entry): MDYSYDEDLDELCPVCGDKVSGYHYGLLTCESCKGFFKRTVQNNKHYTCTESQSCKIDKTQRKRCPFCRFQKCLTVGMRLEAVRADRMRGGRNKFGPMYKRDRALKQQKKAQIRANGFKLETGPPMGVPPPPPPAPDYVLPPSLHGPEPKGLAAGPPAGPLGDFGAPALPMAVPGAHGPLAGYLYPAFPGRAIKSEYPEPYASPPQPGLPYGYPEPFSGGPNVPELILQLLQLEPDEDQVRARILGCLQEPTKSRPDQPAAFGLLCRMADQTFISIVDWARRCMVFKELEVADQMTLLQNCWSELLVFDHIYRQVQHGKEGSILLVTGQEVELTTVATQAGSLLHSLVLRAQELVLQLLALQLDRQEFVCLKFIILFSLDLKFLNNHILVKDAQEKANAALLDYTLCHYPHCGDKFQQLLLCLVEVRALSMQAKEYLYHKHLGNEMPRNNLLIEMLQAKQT

[2] = molecular target: Nuclear receptor subfamily 5 group A member 2 (Homo sapiens) (UniProt O00482)
Sequence of Nuclear receptor subfamily 5 group A member 2 (Homo sapiens) (O00482 whole entry): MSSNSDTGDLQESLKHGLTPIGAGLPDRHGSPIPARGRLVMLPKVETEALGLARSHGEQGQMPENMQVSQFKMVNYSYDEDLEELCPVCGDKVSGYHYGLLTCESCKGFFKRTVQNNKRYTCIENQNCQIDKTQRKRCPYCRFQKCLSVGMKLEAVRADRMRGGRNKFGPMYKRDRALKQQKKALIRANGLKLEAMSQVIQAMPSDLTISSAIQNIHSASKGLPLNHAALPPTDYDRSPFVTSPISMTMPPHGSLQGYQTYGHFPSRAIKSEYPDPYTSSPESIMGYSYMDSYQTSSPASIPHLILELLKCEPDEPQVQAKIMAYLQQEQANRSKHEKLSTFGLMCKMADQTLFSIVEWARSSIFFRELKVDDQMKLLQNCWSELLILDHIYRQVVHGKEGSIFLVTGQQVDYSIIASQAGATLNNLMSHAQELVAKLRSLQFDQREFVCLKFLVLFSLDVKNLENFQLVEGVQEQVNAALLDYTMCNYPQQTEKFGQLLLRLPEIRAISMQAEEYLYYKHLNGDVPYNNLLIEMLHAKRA

[3] = tested on: Nuclear receptor subfamily 5 group A member 2 (Homo sapiens), O00482 [T352V]; experiment: Activation of human full length LRH1 T352V mutant transfected in human HeLa cells at 10 uM incubated for 24 hrs by renilla luciferase reporter gene assay; format: cell-based
Sequence of Nuclear receptor subfamily 5 group A member 2 (Homo sapiens), O00482 [T352V] (O00482 whole entry T352V): as the sequence (O00482 whole entry) above, with T352V counted along it

[4] = tested on: Nuclear receptor subfamily 5 group A member 2 (Homo sapiens), O00482 [M345L]; experiment: Activation of human full length LRH1 M345L mutant transfected in human HeLa cells at 10 uM incubated for 24 hrs by renilla luciferase reporter gene assay; format: cell-based
Sequence of Nuclear receptor subfamily 5 group A member 2 (Homo sapiens), O00482 [M345L] (O00482 whole entry M345L): as the sequence (O00482 whole entry) above, with M345L counted along it

[5] = tested on: Nuclear receptor subfamily 5 group A member 2 (Homo sapiens), O00482 [H390A]; experiment: Activation of human full length LRH1 H390A mutant transfected in human HeLa cells at 10 uM incubated for 24 hrs by renilla luciferase reporter gene assay; format: cell-based
Sequence of Nuclear receptor subfamily 5 group A member 2 (Homo sapiens), O00482 [H390A] (O00482 whole entry H390A): as the sequence (O00482 whole entry) above, with H390A counted along it

Mus musculus [6] = species: Mus musculus; experiment: Effect on Cyp11a1 mRNA expression in LRH1 knock-out mouse enteroids at 1 uM pretreated with TNF-alpha followed incubation with compound for overnight by real-time PCR analysis; format: functional
Mus musculus [7] = species: Mus musculus; experiment: Effect on Cyp11b1 mRNA expression in LRH1 knock-out mouse enteroids at 1 uM pretreated with TNF-alpha followed incubation with compound for overnight by real-time PCR analysis; format: functional

SMILES	Activity [1]	ΔTm [2] [°C]	other results
C=C(c1ccccc1)[C@@]12CC[C@@H](O)[C@@H]1CC(CCCCCC)=C2c1ccccc1	Active	–	–
C=C(c1ccccc1)[C@@]12CC[C@@H](OS(N)(=O)=O)[C@@H]1CC(CCCCCC)=C2c1ccccc1 (racemic)	–	3 to 8	–
C=C(c1ccccc1)[C@@]12CC[C@H](NC(C)=O)[C@@H]1CC(CCCCCC)=C2c1ccccc1 (racemic)	inactive	–	Activity [3]: Active; Activity [4]: Active; Activity [5]: inactive
C=C(c1ccccc1)[C@@]12CC[C@H](NS(N)(=O)=O)[C@@H]1CC(CCCCCC)=C2c1ccccc1 (racemic)	Active	–	Activity (Mus musculus [6]): inactive; Activity (Mus musculus [7]): inactive
C=C(c1ccccc1)[C@@]12CC[C@H](OS(=O)(=O)NC(N)=O)[C@@H]1CC(CCCCCC)=C2c1ccccc1 (racemic)	–	3 to 8	–
C=C(c1ccccc1)[C@@]12CC[C@H](OS(N)(=O)=O)[C@@H]1CC(CCCCCC)=C2c1ccccc1 (racemic)	Active	3 to 8	–
C=C(c1ccccc1)[C@@]12CC[C@H](n3ccnn3)[C@@H]1CC(CCCCCC)=C2c1ccccc1 (racemic)	–	3 to 8	–
